Experimental data: US6281250A, “Retinyl ethers, derivatives and analogues and inhibition of breast carcinogenesis” (Southern Research Institute, priority 1999, dated 2001)
“Also recorded” adds a separate entry of the source. Like-named read-outs stand apart in the source and are kept apart here.

Columns and labels:
[1] = system: serum retinol-binding protein (RBP); experiment: Binding to serum retinol-binding protein (RBP): inhibition of [3H]retinol binding; conditions: % of that of retinol
[2] = system: TPA-induced ornithine decarboxylase (ODC); experiment: Inhibition of TPA-induced ornithine decarboxylase (ODC) in mouse skin; type: in vivo
Description: Earlier, several alkyl, alkenyl, or alkynyl retinyl ethers had been assayed for inhibition of TPA-induced ornithine decarboxylase (ODC) in mouse skin and for the suppression of DMBA-initiated and TPA-promoted mouse-skin papillomas (Shealy et al., 1997). In comparison with control groups, these retinyl ethers were ineffective. Only a few representatives of the benzyl ethers were selected for tests in these assays. […] Because of these and the earlier results (Shealy et al., 1997), testing of retinyl benzyl ethers in the ODC and papilloma assays was discontinued.

[3] = Stability of retinyl ethers in storage and in solution; type: physicochemical
[4] = Toxicity observations in rats receiving retinoids in feed; type: in vivo, rat (Sprague-Dawley); conditions: administered in feed, listed as RTMBE
Procedure: (§1) Retinoid diet mixtures were stored at 4° C. […] The animals were palpated for mammary tumors 2×/week. […] Also, five rats/group had complete necropsies performed.

[5] = system: MNU-induced mammary cancer; conditions: for Adenocarcinomas, % of Control Group A / Adenocarcinomas, Avg. No. Per Rat / reduction of average number of tumors per rat: 160 days
Procedure: Briefly, diets were prepared by mixing each retinoid with Wayne meal or Teklad (4%) mash diet. For each kg of diet, the retinoid was dissolved in 12 g ethanol, 19 g trioctanoin, 0.05 mL Tenox 20, and 0.05 mL d,1-alpha tocopherol prior to incorporation into the feed using a Patterson-Kelly blender. Retinoid diet mixtures were stored at 4° C. Portions of each retinoid-diet mixture were analyzed for the added retinoid to ensure homogeneity. Female Sprague-Dawley rats received an i.v. injection of MNU (45 mg/kg body weight) at 50 days of age. Diet supplementation with retinoids was initiated three days after MNU. A group of rats receiving retinyl acetate (1 mmol/kg of diet) served as the positive control. The animals were palpated for mammary tumors 2×/week. At termination of the study, mammary tumors were processed for histological classification. Also, five rats/group had complete necropsies performed. The tissues were examined histologically for pathological lesions as additional toxicological evaluation. Extracts of the liver and mammary gland (5 rats/group) were analyzed by HPLC for retinyl palmitate and/or for the dosed retinoid. Statistical analyses of cancer incidence and latency were determined using logrank analysis, while differences in cancer multiplicity were determined employing the Armitage test.
In this assay, described previously (Grubbs et al., 1995; Shealy el al., 1997), a retinoid dissolved in a solution (vehicle) consisting of ethanol and trioctanoin plus small amounts of Tenox 20 and α-tocopherol was mixed with feed, and the mixture was fed to rats after intravenous injection of MNU.
^a Female Sprague-Dawley rats (10/group) received one i.v. injection of
MNU (45 mg/kg of body weight) at 50 days of age. Diet supplementation with
retinoids was initiated at 52 days of age and was continued until the
study was terminated 160 days after administration of MNU.
^b Treatment with retinoids is stated in millimoles of retinoid per
kilogram of diet (Wayne meal).

[6] = Analysis of feed samples for stability of retinyl ethers; type: physicochemical
Procedure: (§2) The 2,5-dimethoxybenzyl (3b) and 4-methoxybenzyl (3e) ethers were tested in the same way in a 90-day study. […] The 2,5-dimethybenzyl (3c) and the 2,3-dimethoxybenzyl (3h) ethers, together with RTMBE for comparison, were likewise assayed according to the same methodology. Prior to the beginning of this study, specimens of the retinoid-diet mixtures were placed under the conditions that were employed during the storage and feeding of RTMBE, 3c, and 3h. The specimens were extracted with butanol, and the extracts were analyzed by HPLC. […] Testing of 3c and 3h was discontinued, but the RTMBE study was continued until the duration of the study was 180 days (Table 6). The results were similar to those of Experiment 1 (Table 3). The averages of the number of tumors per rat were reduced by 32-35%; in addition, the averages of the tumor weights per rat was 56-70% lower than the average tumor burden of the control group.
^a The values in each column are % recoveries of the retinyl ether from
mixtures of the ether with feed samples and are based on the actual
amounts of the ether that were added.
^b The samples that were analyzed were mixtures of vehicle, retinoid,
and feed (prepared as described by Shealy et al., 1997).
^c Food cups were placed in animal cages within the room that housed
the rats; therefore, temperature (22° C.) and lighting were
identical to those in use during the in vivo tests.

[7] = Shealy et al., 1997; cited from earlier work
[8] = system: MNU-induced mammary cancer; experiment: 180-day study of RTMBE for suppression of MNU-induced mammary carcinogenesis (Expt. 3); type: in vivo, rat (female Sprague-Dawley)
Procedure: as §1, §2
^a Each group of female Sprague-Dawley rats (10/group) received one
until Day 180 after injection of MNU.
and was continued until the study was terminated at 180 days after MNU.

[9] = molecular target: T1, cellular retinol-binding protein (CRBP) (Rattus norvegicus, UniProt P02696); experiment: Binding to cellular retinol-binding protein (CRBP): inhibition of [3H]retinol binding, sucrose density-gradient sedimentation
T1 construct: portions of rat testes cytosol (1 mg protein) were incubated; from tissue; host or cells: rat testes cytosol
T1 sequence (P02696 1-135): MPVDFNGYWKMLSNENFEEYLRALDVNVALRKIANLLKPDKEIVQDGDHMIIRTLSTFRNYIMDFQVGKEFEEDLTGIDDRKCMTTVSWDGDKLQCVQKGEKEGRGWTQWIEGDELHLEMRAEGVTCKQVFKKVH
Procedure: Binding affinities of the retinyl ethers for CRBP were determined by sucrose, density-gradient, sedimentation analysis as described before (Sani et al., 1980). Briefly, portions of rat testes cytosol (1 mg protein) were incubated with [^3 H]retinol (50 pmol) in the presence or absence of a 150-fold molar excess of unlabeled retinol or the test retinoids. The preparations after dialysis were analyzed by 5-20% sucrose density gradient sedimentation. For measuring the competitive binding of the unlabeled retinoids, inhibition of [^3 H]retinol binding to CRBP by unlabeled retinol is regarded as 100%. The mean and standard deviation calculated from the relative inhibitions obtained from multiple determinations were used as the relative binding affinities of the various retinyl ethers.
The group of retinyl benzyl ethers has now been evaluated for binding to CRBP. Binding to CRBP, as defined for Table I, at approximately 60% or higher was rated as strong; at 40-60%, as moderate; at 20-40%, as low.
^a Per cent inhibition of binding of tritiated retinol to CRBP by a
150-fold molar excess of the unlabelled test retinoid (Sani et al., 1980,

[10] = system: NADPH-requiring enzymes in rat liver microsomes; experiment: Conversion of retinyl ethers to retinol by rat liver microsomal enzymes; type: in vitro ADME; conditions: in vitro
Procedure: Because it was postulated, as stated above, that new retinyl ethers might not be converted by mircrosomal oxidases to retinol, RTMBE and 3a-i were tested in vitro in the same way.

[11] = 7 days, 25.5±1.5° C., protected

SMILES: COc1cc(COC/C=C(C)/C=C/C=C(C)/C=C/C2=C(C)CCCC2(C)C)cc(OC)c1OC [Compound 2, Retinyl 3,4,5-Trimethoxybenzyl Ether]
- inhibition of [3H] retinol-binding (RBP), relative to that of retinol [1]: 70%
- activity in ODC assay [2]: not active in the ODC assay
- stability on storage ([3]; 5 years at -20° C., inert atmosphere): unchanged
- stability in DMSO [3, 11]: changed very little
- stability in absolute ethanol [3, 11]: practically unchanged
- remaining at 43830 h ([3]; inert atmosphere storage, 5 years at -20° C., inert atmosphere, read-out: HPLC on re-analysis after storage): 99.2%
- toxicity in MNU-mammary cancer studies [4]: Overt toxicity was not evident; also recorded: not toxic in the mammary carcinogenesis studies
- Adenocarcinomas, % of Control Group A ([5]; 0.5 mmol/kg diet): 100%
- Adenocarcinomas, Avg. No. Per Rat ([5]; 0.5 mmol/kg diet): 6.5
- Adenocarcinomas, % of Control Group A ([5]; 1 mmol/kg diet): 55%
- Adenocarcinomas, Avg. No. Per Rat ([5]; 1 mmol/kg diet): 3.6
- reduction of average number of tumors per rat ([5]; 1 mmol/kg feed): 46%
- Adenocarcinomas, % of Control Group A ([5]; 2 mmol/kg diet): 54%
- Adenocarcinomas, Avg. No. Per Rat ([5]; 2 mmol/kg diet): 3.5
- reduction of average number of tumors per rat ([5]; 2 mmol/kg feed): 45%
- prevention / suppression of mammary cancer, general statement ([5]; animal model / in vivo initial study): suppress mammary cancer in vivo
- % recovery of retinyl ether from feed ([6]; After 1 week of 4° C., 10080 min): 101%
- % recovery of retinyl ether from feed ([6]; After 1 day in food cup (22° C.)): 97%
- % recovery of retinyl ether from feed ([6]; After 2 days in food cup (22° C.)): 104%
- % recovery of retinyl ether from feed ([6]; After 3 days in food cup (22° C.)): 97.5%
- % recovery of retinyl ether from feed ([6]; Immediately After Mixing): 99.8%
- % recovery of retinyl ether ([6]; Vehicle + Retinoid (only)): 97%
- stability in diet mixtures ([6]; conditions of storage and feeding in animal rooms): essentially unchanged
- recovery from the feed of rats [7]: recoverable from the feed of rats
- Adenocarcinomas, % of Control Gp. ([8]; 0.5 mmol/kg diet, 180 days): 65%
- Adenocarcinomas, Avg. No. Per Rat ([8]; 0.5 mmol/kg diet, 180 days): 4.07
- Final Body Wt. ([8]; 0.5 mmol/kg diet, 180 days): 259 g
- Tumor Wt. Per Rat ([8]; 0.5 mmol/kg diet, 180 days): 7.0 g
- Adenocarcinomas, % of Control Gp. ([8]; 1 mmol/kg diet, 180 days): 67%
- Adenocarcinomas, Avg. No. Per Rat ([8]; 1 mmol/kg diet, 180 days): 4.20
- Final Body Wt. ([8]; 1 mmol/kg diet, 180 days): 252 g
- Tumor Wt. Per Rat ([8]; 1 mmol/kg diet, 180 days): 7.57 g
- Adenocarcinomas, % of Control Gp. ([8]; 2 mmol/kg diet, 180 days): 68%
- Adenocarcinomas, Avg. No. Per Rat ([8]; 2 mmol/kg diet, 180 days): 4.27
- Final Body Wt. ([8]; 2 mmol/kg diet, 180 days): 246 g
- Tumor Wt. Per Rat ([8]; 2 mmol/kg diet, 180 days): 5.14 g
- average tumor weight per rat lower than control group ([8]; 180 days, 0.5-2 mmol/kg diet): 56-70%
- reduction of average number of tumors per rat ([8]; 180 days, 0.5-2 mmol/kg diet): 32-35%
- suppression of MNU-induced mammary cancer ([8]; three long-term experiments of 160-180 days): suppressed MNU-induced mammary cancer
- Binding to CRBP, rating ([9]; 150-fold molar excess): strong or moderate binding
- binding to CRBP, in words ([9]; 150-fold molar excess): bind to CRBP
- Percent Inhibition of [3H] Retinol Binding (CRBP Assay) ([9]; 150-fold molar excess of unlabelled test retinoid, rat testes cytosol): 66 ± 12%
- conversion to retinol [10]: not detectable
